The data set can be described thus: solvent given as SMILES.

Under “in ClCCl”, `CCCCCCCCCCn1c(-c2cc(-c3nc4ccccc4n3CCCCCCCCCC)cc(-c3nc4ccccc4n3CCCCCCCCCC)c2)nc2ccccc21` returned an absorption maximum of 299.5 nm.

Where the note is “in ClCCl”, `CCOC(=O)CCCCCn1c2ccc(N)cc2c(=O)c2cc3c(cc21)c(=O)c1cc(N)ccc1n3CCCCCC(=O)OCC` gave an absorption maximum of 574 nm.

As for `COC(=O)C1=C(C(=O)OC)C2(c3ccccc3-c3ccccc32)[C@@H](c2ccc(C)cc2)C=C2c3cc(OC)c(OC)cc3CCN21`, under “in ClCCl”, the absorption maximum worked out at 311 nm.

Take `Cc1ccc2nc3cc4c(cc3c(-c3ccccc3)c2c1)[Si](C)(C)O[Si](C)(C)O[Si]4(C)C`: the absorption maximum (in ClCCl) is given as 371 nm.

With `Nc1ccc2c(c1)C(=O)c1ccccc1-2`, the absorption maximum is 455 nm (in C1CCCCC1), 481 nm (in CC#N), 488 nm (in CCO) and 469 nm (in c1ccccc1).

`COc1cccc(C2=C3C=C(/C=C/C(=O)OC(C)(C)C)C=[N+]3[B-](F)(F)n3cccc32)c1` had an absorption maximum (in ClCCl) of 539 nm.

Turning to `C#Cc1cccc2ccccc12`, the absorption maximum turned out to be 310 nm (in C1CCCCC1), 306 nm (in CC#N), 309 nm (in CO) and 312 nm (in ClCCl).

`N#CSC1=CC2=C(c3ccccc3)c3ccc(SC#N)n3[B-](F)(F)[N+]2=C1N1CCOCC1` returned an absorption maximum (in CCCCCC) of 560 nm, an absorption maximum (in CCOC(C)=O) of 554 nm and an absorption maximum (in ClCCl) of 558 nm.

The compound `CCCCCCn1c2cc(/C=C(\C#N)c3cccs3)ccc2c2ccc(/C=C(\C#N)c3cccs3)cc21` returned an absorption maximum (in ClC(Cl)Cl) of 436.68 nm.

Take `CCCCCCCCOc1cc(/C=C/c2ccncc2)c(OCCCCCCCC)cc1/C=C/c1ccncc1`: the absorption maximum (in ClCCl) is on record as 398 nm.

As for `CCn1c2cc(-c3cccs3)ccc2c2ccc(-c3cccs3)cc21`, the absorption maximum (in ClCCl) stood at 370 nm.

Compound `CCCCOC(=O)c1cc(Cl)c2c3c(Cl)cc4c5c(cc(Cl)c(c6c(Oc7ccc(OC)cc7)cc(C(=O)OCCCC)c1c26)c53)C(=O)N(c1c(C(C)C)cccc1C(C)C)C4=O` yielded an absorption maximum (in Cc1ccccc1) of 519 nm.

The compound `COc1ccc(/C=C/C(=O)c2c(O)cc(C)oc2=O)cc1` gave an absorption maximum (in CC#N) of 380 nm and an absorption maximum (in ClCCl) of 384 nm.

Turning to `Cc1ccc(C#Cc2ccc3nc4ccc(C#Cc5ccc(C)cc5)cn4c(=O)c3c2)cc1`, the absorption maximum (in ClCCl) is given as 385 nm.

For the compound `CCCCC(CC)Cn1c2cc(C#N)ccc2c2ccc(C#Cc3cc(C#Cc4ccc5c6ccc(C#N)cc6n(CC(CC)CCCC)c5c4)c4ccc5c(C#Cc6ccc7c8ccc(C#N)cc8n(CC(CC)CCCC)c7c6)cc(C#Cc6ccc7c8ccc(C#N)cc8n(CC(CC)CCCC)c7c6)c6ccc3c4c65)cc21` (stereo unspecified), the absorption maximum (in ClCCl) worked out at 467 nm.

Under “in O”, `Cc1cc(N(C)C)ccc1C1=C2C=CC(=[N+](C)C)C=C2[Si](C)(C)c2cc(N(C)C)ccc21` registered an absorption maximum of 646 nm.

As for `COc1ccc(-c2cc3c(s2)c(C(C)=O)cc(=O)n3Cc2ccccc2)cc1`, the absorption maximum was determined as 420 nm (in CC#N) and 426 nm (in ClCCl).

In turn, `CN(C)c1ccc(-c2c(/C=C3/C=Cc4ccccc4N3Cc3ccccc3)c(=O)c2=O)cc1` yielded an absorption maximum (in C1CCCCC1) of 358 nm, an absorption maximum (in Cc1ccccc1) of 364 nm and an absorption maximum (in ClCCl) of 511 nm.

`Cc1cc(=O)oc2cc3c(cc12)c1c2ccccc2c2ccccc2c1c1c2ccccc2c2ccccc2c31` displayed an absorption maximum (in ClC(Cl)Cl) of 386 nm.

For `Cc1cc2c(o1)c(C)cc1ccc(=O)oc12`, the absorption maximum reads like this: (in C1CCCCC1) 330 nm; (in C1COCCO1) 315 nm; (in CC#N) 315 nm; (in CCO) 305 nm; (in OCC(F)(F)F) 310 nm.

Consider `O=C1NC(c2ccccc2)=C/C1=C\c1ccccc1`, for which the absorption maximum (in C1COCCO1) is 422 nm.

In the case of `COc1ccc(-c2nc(N)nc(C#N)c2C#N)cc1OC`, the absorption maximum reads like this: (in C1COCCO1) 347 nm; (in CC#N) 359 nm; (in CC(C)=O) 348 nm; (in CCO) 350 nm; (in CCOC(C)=O) 356 nm; (in CO) 346 nm.

As for `CCCCCCCN1C(=CC2=C([O-])C(=CC3=[N+](CCCCCCC)c4ccccc4C3(C)C)C2=C(C#N)C#N)Sc2ccccc21`, the absorption maximum came out at 694 nm (in C1COCCO1), 681 nm (in CCO), 681 nm (in CN(C)C=O) and 690 nm (in ClC(Cl)Cl).

As to `c1ccc(N(c2ccccc2)c2ccc(-c3ccc(-c4ccc(-c5cccs5)c5nsnc45)s3)cc2)cc1`, for the setting “in ClC(Cl)Cl”, the absorption maximum is 495 nm.

For the compound `N#CC(C#N)=Cc1ccc(-c2ccc(N(c3ccccc3)c3ccccc3)cc2)s1`, the absorption maximum (in ClC(Cl)Cl) was 506 nm.

As to `Cc1ccc(C(=O)/C=C/c2ccc(N(C)C)cc2)cc1`, the absorption maximum reads like this: (in C1CCOC1) 404 nm; (in CC#N) 411 nm; (in CC(=O)O) 427 nm; (in CC(C)=O) 405 nm; (in CCO) 422 nm; (in CN(C)C=O) 419 nm. Also, the absorption maximum by setting is: (in CO) 419 nm; (in Cc1ccccc1) 404 nm; (in ClC(Cl)Cl) 412 nm; (in c1ccccc1) 404 nm.

With `CC(=O)c1ccc2ccc3c(NCCC(=O)NCCCCCCc4nc5c(=O)[nH]c(N)nc5n4[C@H]4C[C@H](O)[C@@H](CO)O4)ccc4ccc1c2c43`, the absorption maximum amounted to 451 nm (in C1CCOC1); 440 nm (in CC#N); 452 nm (in CC(C)O); 451 nm (in CCO); 452 nm (in CN(C)C=O); 447 nm (in CO). Moreover, the absorption maximum runs as follows: (in CS(C)=O) 456 nm; (in O) 460 nm; (in OCC(O)CO) 464 nm.

With `c1ccc(C2=C(c3ccccc3)[Si](c3ccccc3)(c3ccccc3)c3ccccc32)cc1`, the absorption maximum (in C1CCOC1) is recorded as 330 nm.

As for `CC1(C)c2ccccc2N(c2ccc(-c3cccc(C#N)c3)cc2)c2ccccc21`, for the setting “in Cc1ccccc1”, the absorption maximum is listed as 344 nm.

As to `COC(=O)c1cc(=O)n(C)c2cc(-c3ccc(Oc4ccccc4)cc3)sc12`, the absorption maximum by setting is: (in CC#N) 396 nm; (in ClCCl) 398 nm.

For the setting “in ClC(Cl)Cl”, `CN(C)c1ccc(-c2ccc(-c3cc(-c4ccccc4)c(-c4ccccc4)c(-c4ccccc4)c3-c3ccccc3)s2)cc1` registered an absorption maximum of 362 nm.

For `N#CC(C#N)=Cc1ccc2c(c1)[nH]c1c3ccccc3sc21`, the absorption maximum (in ClCCl) was 445 nm.

Consider `COCCOCCOCCOCC(COCCOCCOCCOC)Oc1cc(/C=C/c2ccc(C=C(C#N)C#N)cc2)c(OC(COCCOCCOCCOC)COCCOCCOCCOC)cc1/C=C/c1ccc(C=C(C#N)C#N)cc1`, for which the absorption maximum (in ClCCl) is 465 nm.

On to `CCCCc1ccc(-n2c3c4cc(F)ccc4nnc3c3c2c2nnc4ccc(F)cc4c2n3-c2ccc(CCCC)cc2)cc1`, for which the absorption maximum (in Cc1ccccc1) turned out to be 315 nm.

In the case of `CC(C)[Si](C#Cc1ccc(-c2c3cccc4c5cccc6c(-c7ccc(C#C[Si](C(C)C)(C(C)C)C(C)C)cc7)c7cccc8c9cccc2c9c(c34)c(c65)c78)cc1)(C(C)C)C(C)C`, under “in Cc1ccccc1”, the absorption maximum amounted to 727 nm.

In turn, `N#Cc1c(N2CCCCC2)cc(-c2cccc3ccccc23)c2c1C(=O)c1ccccc1-2` had an absorption maximum (in C1CCOC1) of 344 nm.

On to `COc1ccc(C2=C(c3ccc(OC)cc3)C(C)(C)c3c2ccc2ccccc32)cc1`, for which the absorption maximum (in C1CCCCC1) was 336 nm.

In the case of `CCC1=C(C)C2=C(C)c3c(I)c(I)c(I)n3[B-](F)(F)[N+]2=C1C`, the absorption maximum (in C1CCCCC1) stood at 531.5 nm; the absorption maximum (in CC(C)=O) is reported as 517.5 nm; the absorption maximum (in CCO) worked out at 522 nm; the absorption maximum (in CCOC(C)=O) stood at 521 nm; the absorption maximum (in CO) worked out at 519.5 nm; the absorption maximum (in OCC(F)(F)F) turned out to be 511.5 nm.

Where the note is “in C1CCCCC1”, `CCC(C)(C)c1ccc(-c2ccc3c(c2)C(CCOC)(CCOC)c2cc(C(C)(C)CC)ccc2-3)cc1` showed an absorption maximum of 318 nm.

`Nc1cc2nc3cc(Cl)c(Cl)cc3nc2cc1N` displayed an absorption maximum (in CCO) of 442 nm.

With `COc1ccc(C2=[O+][B-](F)(F)OC(c3ccc4c(c3)Cc3ccccc3-4)=C2)cc1`, the absorption maximum (in CC#N) is recorded as 424 nm.

`FC(F)(F)c1ccc(-c2nc(-c3ccc(C(F)(F)F)cc3)n3ccccc23)cc1` gave an absorption maximum (in ClC(Cl)Cl) of 325 nm.

On to `O=C(c1ccc(C(=C(c2ccc(C(=O)c3ccc(-n4c5ccccc5c5ccccc54)cc3)cc2)c2ccc(C(=O)c3ccc(-n4c5ccccc5c5ccccc54)cc3)cc2)c2ccccc2)cc1)c1ccc(-n2c3ccccc3c3ccccc32)cc1`, for which the absorption maximum (in C1CCOC1) was 340 nm.

Consider `Cc1ccc(-n2c(-c3ccc(C(F)(F)F)cc3)nc(-c3ccccc3O)c2-c2ccccc2O)cc1`, for which the absorption maximum reads like this: (in C1CCOC1) 314 nm; (in CC(C)O) 309 nm; (in CCCCCC) 314 nm; (in CO) 309 nm; (in CS(C)=O) 313 nm; (in ClCCl) 311 nm.

For the setting “in ClC(Cl)Cl”, `C[Si](C)(C)c1sc([Si](C)(C)C)c2c1sc1c2sc2sc3sc4c(sc5c([Si](C)(C)C)sc([Si](C)(C)C)c54)c3c21` showed an absorption maximum of 332 nm.

With `Fc1cc(F)c2cc3cccc[n+]3cc2c1`, the absorption maximum (in O) is reported as 407 nm.

On to `Cc1cc(C)c(B(c2cc3ccc4cccc5ccc(c2)c3c45)c2c(C)cc(C)cc2C)c(C)c1`, for which the absorption maximum (in Cc1ccccc1) is 413 nm.

`CC(C)(C)c1cc(-c2cc3c(cc(-c4cc(C(C)(C)C)cc(C(C)(C)C)c4)n3-c3ccc(C(=C(c4ccccc4)c4ccccc4)c4ccccc4)cc3)n2-c2ccc(C(=C(c3ccccc3)c3ccccc3)c3ccccc3)cc2)cc(C(C)(C)C)c1` showed an absorption maximum (in ClCCl) of 337 nm.

Turning to `COC(=O)c1nc2cnc(N)nc2n1Cc1ccccc1`, the absorption maximum by setting is: (in C1COCCO1) 331 nm; (in CC#N) 330 nm; (in CO) 335 nm; (in ClCCl) 328 nm; (in O) 325 nm.

The compound `O=c1c2cc(F)c(O)cc2oc2cc(O)c(F)cc12` yielded an absorption maximum (in CCO) of 369 nm.

Values taken from the Deep4Chem optical property database.
